Measurements: publication PMC9823006 (Nature Communications, 2023)
Values joined by “and” are separate entries in the source; they are usually repeats but may differ in a detail not shown here. Equal entries are not always repeated. Where two headings read alike, the source gives them in different places.

Legend:
KalbSec14 [1] = target: T1, KalbSec14 (Rattus norvegicus, UniProt P97924, N62Y/T46S); assay: Isothermal titration calorimetry (preliminary); format: binding; details: data not shown; authors' response in peer review file; read-out: estimated KD from preliminary ITC data
T1 construct: His6 (TEV-cleavable) (N, cleaved yes); made in house; host or cells: E. coli BL21(DE3)

KalbSec14 [2] = target: T1, KalbSec14; assay: NMR chemical shift perturbation (CSP) titration, 1H-15N HSQC; format: binding
Method: (§1) ^1H-^15N HSQC spectra of the uniformly ^15N-labeled Kal^bSec14 and Kal^Sec14 were recorded at 25 °C on an Agilent VNMRS 800 MHz (^1H) spectrometer equipped with a cryogenic probe. ^1H-^15N HSQC spectra of the uniformly ^15N-labeled Kal^bSec14 mutants were recorded using the TopSpin software (https://www.bruker.com/en/products-and-solutions/mr/nmr-software/topspin.html) at 25 °C on a Bruker Avance NEO 600 MHz spectrometer equipped with a cryogenic probe. All detergents and lipids used in this study were purchased from Cube Biotech Inc. (Wayne, Pennsylvania) and Avanti Polar Lipids, Inc. (Alabaster, Alabama), respectively; details are listed in Supplementary Table 2. After collecting an initial protein-only spectrum with a starting protein concentration of 0.4 mM, each detergent or lipid was dissolved in the same NMR buffer and gradually added to the protein until no further CSP was observed. Each series usually comprised 8-12 titration points, with ligand concentrations ranging from 0 to 8 mM and final protein:ligand ratios from 1:7 to 1:25 (the protein concentration in each mixture during titration was confirmed by UV-vis absorbance at 280 nm). The HSQC spectrum was recorded for each titration point using the same instrument setup as that of the apo protein. All spectra were processed with NMRPipe[59], and peak heights and locations were analyzed in CcpNmr Analysis[60].
(§2) For each titration series, observed CSPs for a single amino acid residue were calculated using the combined shift change (Δδ) of the backbone amide nitrogen and proton based on the equation △δ(ppm)=[△δH2+(α⋅△δN)^2] , where ΔδH and ΔδN are the ^1H and ^15N chemical shift differences between the free and bound states, respectively, and α denotes the chemical shift scaling factor for ^15N[63].
(§3) In each titration series, the peaks for all residues were ranked based on the CSP observed upon titration at the highest ligand concentration. […] The well-resolved and non-overlapped CSPs, usually including most of the 2σ CSPs and some of the 1σ CSPs, were then plotted as a function of the ligand concentration and the dissociation constant (KD) was extracted by nonlinear least-square fitting of the following equation: △δobs=△δmax(KD+[L]t+[P]t)−(KD+[L]t+[P]t)^2−4[L]t[P]t/2[P]t , where [P]t and [L]t are the total protein and ligand concentrations, respectively, and △δmax is the chemical shift difference at saturation. The bound fraction plotted as the y-axis in the Figures was defined as △δobs/△δmax based on the average of the normalized CSPs from all the selected peaks. Titration data for each residue and each peak used for KD calculations are provided in the Source Data file.

Kal^Sec14 [3] = target: T2, Kal^Sec14 (Rattus norvegicus, UniProt P97924, N62Y/T46S); assay: as above; format: binding
T2 construct: 19.4 kDa); His6 (TEV-cleavable) (N, cleaved yes); made in house; host or cells: E. coli BL21(DE3)
Method: as §1, §2, §3

α-TTP = target: α-TTP; set-up: method as in earlier work; details: quoted by reviewer as specific binding; ref 1 Panagabko, C. et al. Biochemistry 42, 6467–74 (2003); cited from earlier work
KalbSec14 [4] = target: T1, KalbSec14; assay: Liposome flotation binding assay (Accudenz gradient, Western blot)
Method: Unilamellar liposomes formed by mixing synthetic dioleoyl phospholipids and cholesterol in proportions mimicking the membranes of the trans-Golgi network (Golgi-mixture) were incubated with Kal^bSec14. An Accudenz gradient was used to separate liposome-bound proteins, which were recovered from the top of the gradient (fraction 1), from unbound proteins, which remained at the bottom (fraction 4). Protein levels in each fraction were analyzed by Western blotting with an antibody to the Sec14 domain of Kalirin.
(§4) The synthetic and natural lipids used in flotation assays were purchased from Avanti Polar Lipids, Inc. (Supplementary Table 2). All powdered lipids were dissolved in chloroform per the manufacturer’s instructions. Liposomes were prepared as previously described. […] Individual test lipids were dried together with the control lipid mix under a nitrogen stream and lyophilized overnight. Each dried lipid film was reconstituted to a final concentration of 1 mM in HN buffer containing 20 mM HEPES (pH 7.4) and 150 mM NaCl. Each final lipid mixtures consisted of 52% DOPC, 20% DOPE, 5% DOPS, 15% cholesterol and 8% tested lipid; inclusion of a trace amount of fluorescent lipid (Liss Rhod PE) allowed for localization of liposomes following gradient fractionation (see below). Each lipid mixture underwent five freeze-thaw cycles separated by vigorous vortexing each time it was thawed. Using a mini-extruder, unilamellar liposomes were prepared by passing each lipid mixture 21 times through a polycarbonate membrane of 100-nm pore size. Hydrated lipid mixtures were stored at −20 °C for up to 1 month; liposomes were freshly prepared for each experiment.
(§5) Flotation assays were conducted following the protocol previously described. Accudenz (Accurate Chemical and Scientific Corp., Westbury, NY) solutions (80 and 20% weight/vol) were prepared in HN buffer. To remove any particulate material, the protein to be tested was first centrifuged at 436,000 g at 4 °C for 15 min in a TL-100 ultracentrifuge using a Beckman TLA100.2 fixed angle rotor. Freshly prepared unilamellar liposomes (50 μl) were combined with 0.2 μg of the centrifuged protein and incubated at room temperature for 30 min. The entire liposome/protein mixture was then combined with 50 μl of 80% Accudenz at the bottom of an ultracentrifuge tube and carefully mixed to completion by pipetting. The resulting mixture was overlayered with […] of 20% Accudenz and then with 50 μl of HN buffer. Samples were centrifuged at 259,000 g at 4 °C for 30 min in the same ultracentrifuge using a Beckman TLS55 swinging bucket rotor. Gradients were then divided into four 100-μl fractions, which were carefully collected from the bottom of the tube using gel loading micropipette tips. Each fraction was analyzed for liposome and protein content using spectrophotometry (546-nm excitation/571-nm emission) and Western blot, respectively. Only those assays with at least 90% of the Liss Rhod PE marker recovered in the top fraction (fraction 1) were used for Western bloting analysis.
(§6) For Western bloting analysis, equal aliquots of each gradient fraction were denatured in 1× Laemmli sample buffer, fractionated on 15% acrylamide gels, and transferred to PVDF membranes. The protein content was detected using a custom-made rabbit antibody to the Sec14 domain of Kalirin (CT302[69], 1:3000) and an HRP-tagged goat anti-rabbit IgG (H + L) secondary antibody (catalog # 31460, 1:6000; ThermoFisher Scientific). SuperSignal West chemiluminescent substrate (Thermo Scientific) and a Syngene PXi digital imaging system (Synoptics Group) were used to visualize blots, with exposures adjusted to be in the linear range.

Kal^Sec14 [5] = target: T2, Kal^Sec14; assay: as above; details: Suppl. Fig. 9b,c
Method: as §4, §5
as §6, with “range. After background subtraction, bands were quantified using the GeneSys software provided with the imaging system, and data were represented as a proportion of total protein recovered. Uncropped blots, quantification of each data point and exact P-values are provided in the Source Data file. […]” for “range.”
a. Representative Western blots from flotation assays with Kal Sec14 alone (Control), and Kal Sec14 with the control lipid mix (Lipo) or with the lipid mix containing the indicated additional lipid. After binding and separation of liposome bound Kal Sec14 from unbound Kal Sec14 on Accudenz gradients, the protein content of four gradient fractions was dete rmined by immunoblot; liposomes were recovered from the top fraction (fraction 1). Source data are […]

Kal^cSec14 = details: previous studies; cited from earlier work
[6] = NMR titration, two-state binding model, mean ± S.D. of CSP data for individual residues, 25 °C, read-out: KD
[7] = source data of the global fitting, S.D. in the next column, read-out: KD, Ave of residue peaks
[8] = construct without Ex1B front peptide, NMR titration, mean ± S.D. over residues, 25 °C, read-out: KD
[9] = mean of independent experiments, normalized to total protein recovered, test lipid 8% of liposome lipid
[10] = average, biological replication ≥ 3
[11] = individual experiments (Exp. 1-4)

Compound: CCCCCCCCCCCCOP(=O)([O-])OCC[N+](C)(C)C [FC12, dodecylphosphocholine]
- Kd (KalbSec14 [1]): ~500 µM
- Kd (KalbSec14 [2]; [6]): 245 ± 36 µM
- Kd (KalbSec14 [2]; [7]): 245 µM
- Kd (KalbSec14 [2]; source data of the global fitting, peaks numbered, residues not named, read-out: KD fitted for individual residue peaks): 198 µM and 290 µM and 295 µM and 203 µM and 213 µM and 217 µM and 232 µM and 242 µM and 245 µM and 277 µM and 286 µM
- Kd (Kal^Sec14 [3]; [8]): 514 ± 66 µM
- Kd (Kal^Sec14 [3]; read-out: KD of FC12 binding to KalSec14, Ave, average over residue peaks 1-20): 514 µM
- Kd (Kal^Sec14 [3]; read-out: KD of FC12 binding to KalSec14, fit of individual residue peak, residue peaks 1-20, ligand concentrations given in mM): 498 µM and 470 µM and 575 µM and 487 µM (2×) and 514 µM and 590 µM and 540 µM and 542 µM and 537 µM and 496 µM (2×) and 477 µM and 505 µM and 512 µM and 511 µM and 332 µM and 481 µM and 555 µM and 685 µM

Compound: CCCCCCCCCCCCCCOP(=O)([O-])OCC[N+](C)(C)C [FC14, tetradecylphosphocholine]
- Kd (KalbSec14 [1]): ~30 µM
- Kd (KalbSec14 [2]; [6]): 17.1 ± 4.9 µM
- Kd (KalbSec14 [2]; [7]): 17.1 µM
- Kd (Kal^Sec14 [3]; [8]): 35.6 ± 7.2 µM
- Kd (Kal^Sec14 [3]; read-out: KD of FC14 binding to KalSec14, Ave, average over residue peaks 1-24): 35.6 µM
- Kd (Kal^Sec14 [3]; read-out: KD of FC14 binding to KalSec14, fit of individual residue peak, residue peaks 1-24, ligand concentrations given in mM): 47.7 µM and 39.3 µM (2×) and 55.2 µM and 45.5 µM and 35.6 µM (3×) and 25.3 µM and 26.6 µM and 37.4 µM (4×) and 32.3 µM (3×) and 33.9 µM (3×) and 27.9 µM (2×) and 41.2 µM and 24.1 µM

Compound: Cc1c(C)c2c(c(C)c1O)CC[C@@](C)(CCC[C@H](C)CCC[C@H](C)CCCC(C)C)O2 [α-tocopherol]
- Kd (α-TTP): 0.025 µM

Compound: L-α-phosphatidylinositol-4-phosphate [PI4P]
- binding of Kal^bSec14 to liposomes containing the lipid (KalbSec14 [4]; Golgi-mixture liposomes with 8% test lipid, result in words): does not interact
- Fraction 1 protein content (top fraction, liposome-bound), densitometry, Ave. (KalbSec14 [4]; [9]): 0.0251
- Fraction 2 protein content, densitometry, Ave. (KalbSec14 [4]; [9]): 0.0079
- Fraction 3 protein content, densitometry, Ave. (KalbSec14 [4]; [9]): 0.11
- Fraction 4 protein content (bottom fraction, unbound), densitometry, Ave. (KalbSec14 [4]; [9]): 0.86
- Fraction 4 protein content (bottom fraction, unbound), densitometry (KalbSec14 [4]; single experiments, normalized to total protein recovered, test lipid 8% of liposome lipid): 0.87 and 0.90 and 0.84 and 0.91 and 0.78
- Densitometry values for the Western blots, Fraction 1, Ave. (Kal^Sec14 [5]; [10]): 0.06
- Densitometry values for the Western blots, Fraction 2, Ave. (Kal^Sec14 [5]; [10]): 0.02
- Densitometry values for the Western blots, Fraction 3, Ave. (Kal^Sec14 [5]; [10]): 0.13
- Densitometry values for the Western blots, Fraction 4, Ave. (Kal^Sec14 [5]; [10]): 0.79
- Densitometry values for the Western blots, Fraction 1 (Kal^Sec14 [5]; [11]): 0.08 and 0.06 and 0.0331
- Densitometry values for the Western blots, Fraction 2 (Kal^Sec14 [5]; [11]): 0.00889 and 0.05 and 0.0021
- Densitometry values for the Western blots, Fraction 3 (Kal^Sec14 [5]; [11]): 0.04 and 0.22 and 0.13
- Densitometry values for the Western blots, Fraction 4 (Kal^Sec14 [5]; [11]): 0.87 and 0.67 and 0.84
- interaction of Kal^cSec14 with liposomes containing the lipid (Kal^cSec14): specifically interacts
